Columns and labels:
Assay type in all cases: in vivo, Drosophila
[1] = tested on: Dpark^2 parkin mutant flies; test: rescue of defective climbing response of Dpark^2 mutant flies; conditions: for % climbing abilities, Dpark2/Dpark2: Dpark2/Dpark2 flies fed 1 mM compound on dry yeast for 10 days, relative to unfed wild type control; for effect on climbing response (in words): Dpark^2 flies fed 1 mM compound for 10 days
Experimental: (§1) parkin mutant flies older than 3-4 days after eclosion moved extremely slowly or not at all, remaining on the bottom of the culture vials. To quantify the locomotor behavioral defects of parkin mutant flies, the climbing ability of the mutants was examined. To do so, fifteen flies were placed in a plastic vial, and gently tapped to the bottom of the vial. The number of flies at the top of the vial was counted after 18 seconds of climbing. Ten trials were performed for each time point. The trial numbers were then averaged, and the resulting mean was normalized by the mean value of 1-day-old wild type. These used as the climbing scores for each single group of flies on a particular day. The experiment was repeated five times, with independently derived transgenic lines. The climbing score for five repeated experiments was then averaged, and a group mean and standard error were obtained. As previously reported (Ganetzky and Flanagan, Exp. Gerontol., 13:189 (1978); Le Bourg and Lints, Gerontology 8:59 (1992); Feany and Bender, 2000; Pendleton et al., J. Pharmacol. Exp. Ther. 300:91 (2002)), wild type flies rapidly climb to the top of a vial when tapped to the bottom, and have a strong tendency to remain at the top. However, as the flies get older, they no longer climb to the top of the vial, in other words they lose climbing ability (Ganetzky and Flanagan, 1978; Le Bourg and Lints, 1992; Feany and Bender, 2000; Pendleton et al., 2002).
(§2) A compound was screened for its ability to rescue the defective climbing response of Dpark^1 and Dpark^2 mutants. Flies were reared and crossed on Caltech medium (Ashbumer, Drosophila, Cold Spring Harbor, N.Y.: Cold Spring Harbor Laboratory Press (1989)) at 25° C. Wild type or parkin mutant flies were fed either L-DOPA or D-DOPA for 10 days by placing dry yeast that was soaked with 0.3 mL of either 1 mM L-DOPA or 1 mM D-DOPA on the bottom of the vial.

[2] = tested on: Dpark^1 parkin mutant flies; test: rescue of defective climbing response of Dpark^1 mutant flies; conditions: for % climbing abilities, Dpark1/Dpark1: Dpark1/Dpark1 flies fed 1 mM compound on dry yeast for 10 days, relative to unfed wild type control; for effect on climbing response (in words): Dpark^1 flies fed 1 mM compound for 10 days
Experimental: as §1, §2

wild type flies = test: climbing ability of wild type flies fed D- or L-dopa; conditions: for effect on climbing response (in words): wild type flies fed 1 mM compound for 10 days; for % climbing abilities, WT: wild type flies fed 1 mM compound on dry yeast for 10 days
Experimental: as §1, §2

SMILES	% climbing abilities, Dpark2/Dpark2 [1] [%]	% climbing abilities, Dpark2/Dpark2 ([1]; listed as L-DOPA) [%]	effect on climbing response (in words) [1]	% climbing abilities, Dpark1/Dpark1 [2] [%]	% climbing abilities, Dpark1/Dpark1 ([2]; listed as L-DOPA) [%]	effect on climbing response (in words) [2]	effect on climbing response (in words) (wild type flies)	% climbing abilities, WT (wild type flies) [%]
N[C@@H](Cc1ccc(O)c(O)c1)C(=O)O [L-dopa, L-DOPA]	68.51 ± 10.09	~70	significantly restored the climbing response	68.20 ± 6.06	~70	significantly restored the climbing response	Neither L-DOPA nor D-DOPA was effective	100.59 ± 2.73
N[C@H](Cc1ccc(O)c(O)c1)C(=O)O [D-dopa, D-DOPA]	37.75 ± 2.44	–	not effective	33.221 ± 1.87	–	not effective	Neither L-DOPA nor D-DOPA was effective	101.90 ± 2.72
